Source: patent publication US10703756B2, “Pyrrolo[2,3-D]pyrimidinyl, pyrrolo[2,3-B]pyrazinyl, pyrrolo[2,3-B]pyridinyl acrylamides and epoxides thereof” (Pfizer Inc., priority 2015, dated 2020)

Experiments:
JAK3 enzyme [1] = target: T1, JAK3 enzyme (Homo sapiens, UniProt P52333); test: JAK Caliper Enzyme Assay at 4 μM ATP; assay type: biochemical
T1 sequence (P52333 1-1124): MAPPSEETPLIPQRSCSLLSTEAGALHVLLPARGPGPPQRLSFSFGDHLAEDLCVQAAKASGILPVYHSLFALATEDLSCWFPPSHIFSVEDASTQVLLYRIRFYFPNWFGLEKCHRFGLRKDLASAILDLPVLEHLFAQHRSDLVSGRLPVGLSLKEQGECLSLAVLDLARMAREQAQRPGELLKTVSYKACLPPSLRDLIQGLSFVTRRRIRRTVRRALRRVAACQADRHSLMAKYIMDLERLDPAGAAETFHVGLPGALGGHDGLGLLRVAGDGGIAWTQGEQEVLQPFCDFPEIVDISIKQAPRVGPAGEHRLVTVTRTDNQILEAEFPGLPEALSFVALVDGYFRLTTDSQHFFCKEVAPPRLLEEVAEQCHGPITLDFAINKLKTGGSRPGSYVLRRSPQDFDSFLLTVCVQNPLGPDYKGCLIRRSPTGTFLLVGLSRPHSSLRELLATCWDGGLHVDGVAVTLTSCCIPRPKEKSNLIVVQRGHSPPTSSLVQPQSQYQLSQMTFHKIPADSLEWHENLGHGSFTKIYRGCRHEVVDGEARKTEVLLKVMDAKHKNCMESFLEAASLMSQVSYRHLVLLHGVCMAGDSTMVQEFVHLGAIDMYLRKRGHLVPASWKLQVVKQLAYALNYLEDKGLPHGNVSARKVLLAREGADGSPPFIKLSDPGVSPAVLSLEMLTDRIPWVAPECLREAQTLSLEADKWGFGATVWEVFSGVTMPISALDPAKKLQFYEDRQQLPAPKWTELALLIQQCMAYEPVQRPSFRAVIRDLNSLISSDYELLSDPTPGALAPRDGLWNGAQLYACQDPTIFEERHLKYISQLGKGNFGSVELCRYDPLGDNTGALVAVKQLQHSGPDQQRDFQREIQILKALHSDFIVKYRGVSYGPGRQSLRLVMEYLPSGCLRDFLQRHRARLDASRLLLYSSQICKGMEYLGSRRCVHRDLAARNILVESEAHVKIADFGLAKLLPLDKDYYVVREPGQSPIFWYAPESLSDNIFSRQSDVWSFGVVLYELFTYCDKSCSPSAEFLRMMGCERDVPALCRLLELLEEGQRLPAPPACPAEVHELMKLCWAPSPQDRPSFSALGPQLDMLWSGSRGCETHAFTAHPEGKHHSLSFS
Method: (§1) Test article was solubilized in dimethyl sulfoxide (DMSO) to a stock concentration of 30 mM. An 11-point half log dilution series was created in DMSO with a top concentration of 600 μM. […] Test article and assay controls were added to a 384-well plate. […] Enzyme concentrations and incubation times were optimized for each new enzyme preps and were modified slightly over time to ensure 20%-30% phosphorylation. […] The assay plates were placed on a Caliper Life Science Lab Chip 3000 (LC3000) instrument, and each well was sampled using appropriate separation conditions to measure the unphosphorylated and phosphorylated peptide.

JAK3 enzyme [2] = target: T1, JAK3 enzyme; test: JAK Caliper Enzyme Assay at 1 mM ATP; assay type: biochemical
Method: as §1

Structure (SMILES) | IC50 (JAK3 enzyme [1]) | IC50 (JAK3 enzyme [2])
C=CC(=O)N1C[C@H](Nc2ncnc3[nH]ccc23)CC[C@@H]1CNC(C)=O (single isomer, unassigned) [Example 89] | 76.4 nM | 7670 nM
C=CC(=O)N1C[C@H](Nc2ncnc3[nH]ccc23)CC[C@@H]1COC (single isomer, unassigned) [Example 92] | 20.9 nM | 2440 nM
C=CC(=O)N1C[C@@H](Nc2ncnc3[nH]ccc23)CC[C@H]1COC (single isomer, unassigned) [Example 93] | 711 nM | > 3160 nM
C=CC(=O)N1C[C@@H](Nc2ncnc3[nH]ccc23)CC[C@H]1COC (single isomer, unassigned) [Example 96] | 433 nM | > 10000 nM
C=CC(=O)N1C[C@H](CO)C[C@H](Nc2ncnc3[nH]ccc23)C1 (single isomer, unassigned) [Example 99] | 89.2 nM | 8990 nM
C=CC(=O)N1C[C@H](Nc2ncnc3[nH]ccc23)CC[C@H]1[C@@H](C)O (single isomer, unassigned) [Example 110] | 867 nM | > 10000 nM
C=CC(=O)N1CCC(Oc2cnc3[nH]cc([C@H](C)O)c3n2)CC1 (single isomer, unassigned) [Example 118] | 16.1 nM | 1890 nM
C=CC(=O)N1CC[C@H](Nc2cnc3[nH]cc(C(=O)NCC(F)(F)F)c3n2)C1 (single isomer, unassigned) [Example 254] | 17.2 nM | 2540 nM
C=CC(=O)N1CC[C@H](Nc2cnc3[nH]cc(C(=O)NCCC(F)(F)F)c3n2)C1 (single isomer, unassigned) [Example 255] | 6.37 nM | 846 nM
C=CC(=O)N1CC[C@@H](Nc2cnc3[nH]cc(C(=O)N[C@@H](C)COC)c3n2)[C@@H](OC)C1 (single isomer, unassigned) [Example 355] | 0.327 nM | 30 nM
C=CC(=O)N1CC[C@H](Nc2cnc3[nH]cc(C(=O)N[C@@H](C)COC)c3n2)[C@H](OC)C1 (single isomer, unassigned) [Example 356] | 4.07 nM | 831 nM
C=CC(=O)N1CCN(c2cnc3[nH]cc(C(=O)N[C@@H]4COC[C@@H]4c4ccc(F)cc4)c3n2)CC1(C)C (stereo in doubt) [Example 143, 2-(4-acryloyl-3,3-dimethylpiperazin-1-yl)-N-[4-(4-fluorophenyl)tetrahydrofuran-3-yl]-5H-pyrrolo[2,3-b]pyrazine-7-carboxamide] | 22.6 nM | 1920 nM
C=CC(=O)N1C[C@@H](C)[C@@H](Nc2cnc3[nH]cc(C(=O)NCC)c3n2)C1 (stereo in doubt) [Example 248, 2-[(1-acryloyl-4-methylpyrrolidin-3-yl)amino]-N-ethyl-5H-pyrrolo[2,3-b]pyrazine-7-carboxamide] | 48.7 nM | 5330 nM
C=CC(=O)N1C[C@@H](C)[C@@H](Nc2cnc3[nH]cc(C(=O)NCCOC)c3n2)C1 (stereo in doubt) [Example 253, 2-[(1-acryloyl-4-methylpyrrolidin-3-yl)amino]-N-(2-methoxyethyl)-5H-pyrrolo[2,3-b]pyrazine-7-carboxamide] | 72 nM | 7680 nM
C=CC(=O)N1C[C@H](C)[C@H](Nc2cnc3[nH]cc(C(=O)NCC)c3n2)C1 (stereo in doubt) [Example 260, 2-[(1-acryloyl-4-methylpyrrolidin-3-yl)amino]-N-ethyl-5H-pyrrolo[2,3-b]pyrazine-7-carboxamide] | 2.14 nM | 676 nM
C=CC(=O)N1CC[C@@H](Oc2cnc3[nH]cc(C(=O)N[C@@H](C)COC)c3n2)C1 [Example 53, 2-{[(3R)-1-acryloylpyrrolidin-3-yl]oxy}-N-[(2S)-1-methoxypropan-2-yl]-5H-pyrrolo[2,3-b]pyrazine-7-carboxamide] | 31.2 nM | 4000 nM
C=CC(=O)N1CCC(N(C)c2cnc3[nH]cc(C(=O)N4CCC4)c3n2)CC1 [Example 62, 1-(4-{[7-(azetidin-1-ylcarbonyl)-5H-pyrrolo[2,3-b]pyrazin-2-yl](methyl)amino}piperidin-1-yl)prop-2-en-1-one] | 13.5 nM | 2700 nM
C=CC(=O)N1CCN(c2cnc3[nH]cc(C(=O)N[C@H](C)COC)c3n2)CC1(C)COC (stereo partly drawn) [Example 63, 2-(4-acryloyl-3-(methoxymethyl)-3-methylpiperazin-1-yl)-N-((R)-1-methoxypropan-2-yl)-5H-pyrrolo[2,3-b]pyrazine-7-carboxamide] | 2.44 nM | 379 nM
C#CCNC(=O)c1c[nH]c2ncc(N3CCN(C(=O)C=C)C(C)(C)C3)nc12 [Example 83, 2-(4-acryloyl-3,3-dimethylpiperazin-1-yl)-N-(prop-2-yn-1-yl)-5H-pyrrolo[2,3-b]pyrazine-7-carboxamide] | 10.7 nM | 1110 nM
C=CC(=O)N1CCC(Oc2cnc3[nH]cc(C#N)c3n2)CC1 [Example 114, 2-[(1-Acryloylpiperidin-4-yl)oxy]-5H-pyrrolo[2,3-b]pyrazine-7-carbonitrile] | 19.7 nM | 3810 nM
C=CC(=O)N1CCC(Oc2cnc3[nH]cc(-c4n[nH]c(C(C)C)n4)c3n2)CC1 [Example 116, 1-[4-({7-[5-(Propan-2-yl)-1H-1,2,4-triazol-3-yl]-5H-pyrrolo[2,3-b]pyrazin-2-yl}oxy)piperidin-1-yl]prop-2-en-1-one] | 14.7 nM | 2550 nM
C=CC(=O)N1CCC(Oc2cnc3[nH]cc(-c4ncnn4C)c3n2)CC1 [Example 122, 1-(4-{[7-(1-Methyl-1H-1,2,4-triazol-5-yl)-5H-pyrrolo[2,3-b]pyrazin-2-yl}oxy)piperidin-1-yl]prop-2-en-1-one] | 8.97 nM | 1470 nM
C=CC(=O)N1CCC(Oc2cnc3[nH]cc(-c4ncn(CC)n4)c3n2)CC1 [Example 125, 1-(4-{[7-(1-Ethyl-1H-1,2,4-triazol-3-yl)-5H-pyrrolo[2,3-b]pyrazin-2-yl]oxy}piperidin-1-yl)prop-2-en-1-one] | 7.82 nM | 1880 nM
C=CC(=O)N1CCC(Oc2cnc3[nH]cc(-c4ncn(C)n4)c3n2)CC1 [Example 126, 1-(4-{[7-(1-Methyl-1H-1,2,4-triazol-3-yl)-5H-pyrrolo[2,3-b]pyrazin-2-yl]oxy}piperidin-1-yl)prop-2-en-1-one] | 14.9 nM | 3530 nM
C=CC(=O)N1CCC(Nc2cnc3[nH]cc(S(=O)(=O)NC(C)C)c3n2)CC1 [Example 127, 2-[(1-Acryloylpiperidin-4-yl)amino]-N-(propan-2-yl)-5H-pyrrolo[2,3-b]pyrazine-7-sulfonamide] | 9.43 nM | 1080 nM
C#CCOCCc1c[nH]c2ncnc(N[C@@H]3CC[C@H](C)N(C(=O)C=C)C3)c12 [Example 131, 1-[(2S,5R)-2-Methyl-5-({5-[2-(prop-2-yn-1-yloxy)ethyl]-7H-pyrrolo[2,3-d]pyrimidin-4-yl}amino)piperidin-1-yl]prop-2-en-1-one] | 0.182 nM | 33 nM
C=CC(=O)N1CCN(c2cnc3[nH]cc(C(=O)N[C@@H](C)COCc4ccccc4)c3n2)CC1(C)C [Example 134, 2-(4-acryloyl-3,3-dimethylpiperazin-1-yl)-N-[(2S)-1-(benzyloxy)propan-2-yl]-5H-pyrrolo[2,3-b]pyrazine-7-carboxamide] | 12.4 nM | 2530 nM
